This note sets out measurements from patent US9637473B2, “Acrylamide derivatives as antimalarial agents” (priority 2013, dated 2017).

Counter-ions that a name gives are not always drawn.

For the test, the system named is P. Falciparum NF54. In words: Plasmodium falciparum in vitro assay ([3H]-hypoxanthine incorporation). It counts as cell-based. Conditions: Plasmodium falciparum, Erythrocyte, P. Falciparum NF54, erythrocytic stages in human red blood cells, 50% human serum. Here is the method:
In Vitro Antimalarial Activity: Plasmodium falciparum In Vitro Assay: In vitro activity against erythrocytic stages of P. Falciparum in human red blood cells is determined using a [^3H]-hypoxanthine incorporation assay. One strain sensitive to all drugs (P. […] After 48 hours, [^3H]-hypoxanthine (0.5 μCi) is added to each well of a plate. The plates are incubated for a further 24 hours under the same conditions then harvested with a Betaplate cell harvester (Wallac) and washed with distilled water. The dried filters are inserted into a plastic foil with 10 mL of scintillation fluid and counted in a Betaplate liquid scintillation counter. IC50 values are calculated from sigmoidal inhibition curves using Microsoft Excel.
`Cc1ccc(Nc2ccc(CN(C(=O)/C=C/c3ccc(C(F)(F)F)cc3)C3CCN(C4CCCC4)CC3)cc2)nc1` [Example 98, (E)-N-(1-Cyclopentyl-piperidin-4-yl)-N-[4-(5-methyl-pyridin-2-ylamino)-benzyl]-3-(4-trifluoromethyl-phenyl)-acrylamide] gave an IC50 of 0.37 µM. In other words, the sub-micromolar range.
With `CN(c1ccncc1)c1ccc(CN(C(=O)/C=C/c2ccc(C(F)(F)F)cc2)C2CCN(Cc3nc4ccccc4n3C)CC2)cc1` [Example 21, (E)-N-[1-(1-Methyl-1H-benzoimidazol-2-ylmethyl)-piperidin-4-yl]-N-[4-(methyl-pyridin-4-yl-amino)-benzyl]-3-(4-trifluoromethyl-phenyl)-acrylamide], the midpoint of inhibition, the IC50, lay at 0.355 µM. The IC50 values of the last two molecules are within 1.5-fold of each other.
Regarding `CN(c1ccncc1)c1ccc(CN(C(=O)/C=C/c2ccc(C(F)(F)F)cc2)C2CCN(CC3CC4C=CC3C4)CC2)cc1` (stereo not drawn) [Example 10, (E)-N-(1′-Bicyclo[2.2.1]hept-5-en-2-ylmethyl-piperidin-4-yl)-N-[4-(methyl-pyridin-4-yl-amino)-benzyl]-3-(4-trifluoromethyl-phenyl)-acrylamide], the IC50 was 0.014 µM. This IC50 lies about 25-fold lower than the previous one.
`COc1cc(Nc2ccc(CN(C(=O)/C=C/c3ccc(C(F)(F)F)cc3)C3CCN(C4CCCC4)CC3)cc2)ccn1` [Example 94, (E)-N-(1-Cyclopentyl-piperidin-4-yl)-N-[4-(2-methoxy-pyridin-4-ylamino)-benzyl]-3-(4-trifluoromethyl-phenyl)-acrylamide] displayed an IC50 of 0.286 µM.
Molecule `CC(C)N1CCC(N(Cc2cccc(Nc3ccncc3)c2)C(=O)/C=C/c2ccc(C(F)(F)F)cc2)CC1` [Example 126, (E)-N-(1-Isopropyl-piperidin-4-yl)-N-[3-(pyridin-4-ylamino)-benzyl]-3-(4-trifluoromethyl-phenyl)-acrylamide formate] gave an IC50 of 0.03 µM.
As for `Cc1cc(Nc2ccc(CN(CC3(O)CCN(C)CC3)C(=O)/C=C/c3ccc(C(F)(F)F)cc3)cc2)ccn1` [Example 175, (E)-N-(4-Hydroxy-1-methyl-piperidin-4-ylmethyl)-N-[4-(2-methyl-pyridin-4-ylamino)-benzyl]-3-(4-trifluoromethyl-phenyl)-acrylamide], the IC50 came to 0.334 µM.
Turning to `CN1CCC(N2CCC(N(Cc3ccc(N(C)c4ccncc4)cc3)C(=O)/C=C/c3ccc(OC(F)F)cc3)CC2)CC1` [Example 181, (E)-3-(4-Difluoromethoxy-phenyl)-N-(1′-methyl-[1,4′]bipiperidinyl-4-yl)-N-[4-(methyl-pyridin-4-yl-amino)-benzyl]-acrylamide], 0.036 µM corresponded to half-maximal inhibition (IC50).
`CN1CCC(N2CCC(N(Cc3ccc(Nc4ccncc4)cc3)C(=O)/C=C/c3ccc(C(F)(F)F)cc3)CC2)CC1` [Example 115, (E)-N-(1′-Methyl-[1,4′]bipiperidinyl-4-yl)-N-[4-(pyridin-4-ylamino)-benzyl]-3-(4-trifluoromethyl-phenyl)-acrylamide] registered a 50% inhibitory concentration (IC50) of 0.082 µM.
On to `Cc1cc(Nc2cccc(CN(C(=O)/C=C/c3ccc(C(F)(F)F)cc3)C3CCN(C(C)C)CC3)c2)ccn1` [Example 122, (E)-N-(1-Isopropyl-piperidin-4-yl)-N-[3-(2-methyl-pyridin-4-ylamino)-benzyl]-3-(4-trifluoromethyl-phenyl)-acrylamide formate], for which the IC50 was 0.043 µM.
As to `COCC(C)N1CCC(N(Cc2ccc(Nc3ccnc(C)c3)cc2)C(=O)/C=C/c2ccc(C(F)(F)F)cc2)CC1` (racemic) [Example 84, (±)-(E)-N-[1-(2-Methoxy-1-methyl-ethyl)-piperidin-4-yl]-N-[4-(2-methyl-pyridin-4-ylamino)-benzyl]-3-(4-trifluoromethyl-phenyl)-acrylamide], the IC50 came to 0.042 µM.
As to `CC(C)N1CCC(N(Cc2cccc(N(C)c3ccncc3)c2)C(=O)/C=C/c2ccc(C(F)(F)F)cc2)CC1` [Example 142, (E)-N-(1-Isopropyl-piperidin-4-yl)-N-[3-(methyl-pyridin-4-yl-amino)-benzyl]-3-(4-trifluoromethyl-phenyl)-acrylamide formate], half-maximal inhibition (IC50) required 0.027 µM. This IC50 is about 1.6-fold lower than that of the molecule before.
Next, `CN1CCC(N2CCC(N(Cc3ccc(N(C)c4ccncc4)cc3)C(=O)/C=C/c3ccccc3)CC2)CC1` [Example 182, (E)-N-(1′-Methyl-[1,4′]bipiperidinyl-4-yl)-N-[4-(methyl-pyridin-4-yl-amino)-benzyl]-3-phenyl-acrylamide]: 0.069 µM; `O=C(/C=C/c1ccc(C(F)(F)F)cc1)N(Cc1ccc(Nc2cc(C(F)(F)F)nc3c(C(F)(F)F)cccc23)cc1)C1CCN(C2CCCC2)CC1` [Example 89, (E)-N-[4-(2,8-Bis-trifluoromethyl-quinolin-4-ylamino)-benzyl]-N-(1-cyclopentyl-piperidin-4-yl)-3-(4-trifluoromethyl-phenyl)-acrylamide]: 0.337 µM; `CN(c1ccncc1)c1ccc(CN(C(=O)/C=C/c2ccc(C(F)(F)F)cc2)C2CCCN(C3CCCC3)CC2)cc1` (racemic) [Example 60, (±)-(E)-N-(1-cyclopentylazepan-4-yl)-N-(4-(methyl(pyridin-4-yl)amino)benzyl)-3-(4-(trifluoromethyl)phenyl)acrylamide]: 0.079 µM.
For the molecule `CN(c1ccncc1)c1ccc(CN(C(=O)/C=C/c2ccc(C(F)(F)F)cc2)C2CCN(Cc3cccnc3)CC2)cc1` [Example 23, (E)-N-[4-(Methyl-pyridin-4-yl-amino)-benzyl]-N-(1-pyridin-3-ylmethyl-piperidin-4-yl)-3-(4-trifluoromethyl-phenyl)-acrylamide], the IC50 was 0.123 µM. This IC50 is about 1.6-fold higher than that of the molecule before.
Regarding `CN1CCC(N(C)c2ccc(CN(C(=O)/C=C/c3ccc(OC(F)(F)F)cc3)C3CCN(Cc4ccccc4)CC3)cc2)CC1` [Example 178, (E)-N-(1-Benzyl-piperidin-4-yl)-N-{4-[methyl-(1-methyl-piperidin-4-yl)-amino]-benzyl}-3-(4-trifluoromethoxy-phenyl)-acrylamide], the IC50 amounted to 0.343 µM.
`Cn1ccc(-c2ccc(CN(C(=O)/C=C/c3ccc(C(F)(F)F)cc3)C3CCN(C4CCCC4)CC3)cc2)n1` [Example 202, (E)-N-(1-Cyclopentyl-piperidin-4-yl)-N-[4-(1-methyl-1H-pyrazol-3-yl)-benzyl]-3-(4-trifluoromethyl-phenyl)-acrylamide] had an IC50 of 0.434 µM.
Next, `CN(c1ccncc1)c1ccc(CN(C(=O)/C=C/c2ccc(C(F)(F)F)cc2)[C@@H]2CCN(C3CCCC3)C[C@H]2F)cc1` (racemic) [Example 80, (±)-(E)-N-(trans-1-cyclopentyl-3-fluoropiperidin-4-yl)-N-(4-(methyl(pyridin-4-yl)amino)benzyl)-3-(4-(trifluoromethyl)phenyl)acrylamide]: 0.105 µM; `CN(c1ccncc1)c1ccc(CN(C(=O)/C=C/c2ccc(C(F)(F)F)cc2)C2CCNCC2)cc1` [Example 1, (E)-N-[4-(Methyl-pyridin-4-yl-amino)-benzyl]-N-piperidin-4-yl-3-(4-trifluoromethyl-phenyl)-acrylamide]: 0.121 µM; `CC(C)N1CCN(c2ccc(CN(C(=O)/C=C/c3ccc(C(F)(F)F)cc3)C3CCN(C4CCCC4)CC3)cc2)CC1` [Example 199, (E)-N-(1-Cyclopentyl-piperidin-4-yl)-N-[4-(4-isopropyl-piperazin-1-yl)-benzyl]-3-(4-trifluoromethyl-phenyl)-acrylamide]: 0.096 µM.
The molecule `CN(c1ccncc1)c1ccc(CN(C(=O)/C=C/c2ccc(C(F)(F)F)cc2)C2CCN(Cc3cncn3C)CC2)cc1` [Example 19, (E)-N-[1-(3-Methyl-3H-imidazol-4-ylmethyl)-piperidin-4-yl]-N-[4-(methyl-pyridin-4-yl-amino)-benzyl]-3-(4-trifluoromethyl-phenyl)-acrylamide] registered an IC50 of 0.054 µM.
`CN(c1ccncc1)c1ccc(CN(C(=O)/C=C/c2ccc(C(F)(F)F)cc2)[C@H]2CC[C@@H](N3CCCC3)CC2)cc1` [Example 192, (±)-cis-(E)-N-[4-(Methyl-pyridin-4-yl-amino)-benzyl]-N-(4-pyrrolidin-1-yl-cyclohexyl)-3-(4-trifluoromethyl-phenyl)-acrylamide] registered an IC50 of 0.025 µM.
As to `Cc1cc(Nc2ccc(CN(C(=O)/C=C/c3ccc(C(F)(F)F)cc3)C3CCN(Cc4ccccc4)CC3)cc2)ccn1` [Example 37, (E)-N-(1-Benzyl-piperidin-4-yl)-N-[4-(2-methyl-pyridin-4-ylamino)-benzyl]-3-(4-trifluoromethyl-phenyl)-acrylamide], inhibition was half-maximal at 0.051 µM (IC50). This IC50 lies about 2-fold higher than the previous one.
Next, `CC(C)N1CCC(N(Cc2cccc(Nc3ccncn3)c2)C(=O)/C=C/c2ccc(C(F)(F)F)cc2)CC1` [Example 125, (E)-N-(1-Isopropyl-piperidin-4-yl)-N-[3-(pyrimidin-4-ylamino)-benzyl]-3-(4-trifluoromethyl-phenyl)-acrylamide formate]: 0.34 µM; `Cc1cnccc1Nc1cccc(CN(C(=O)/C=C/c2ccc(C(F)(F)F)cc2)C2CCN(C(C)C)CC2)c1` [Example 123, (E)-N-(1-Isopropyl-piperidin-4-yl)-N-[3-(3-methyl-pyridin-4-ylamino)-benzyl]-3-(4-trifluoromethyl-phenyl)-acrylamide formate]: 0.021 µM; `CN1CCC(N2CCC(N(Cc3ccc(N(C)c4ccncc4)cc3)C(=O)/C=C/c3ccc(Cl)cc3)CC2)CC1` [Example 180, (E)-3-(4-Chloro-phenyl)-N-(1′-methyl-[1,4′]bipiperidinyl-4-yl)-N-[4-(methyl-pyridin-4-yl-amino)-benzyl]-acrylamide]: 0.021 µM.
Molecule `CN(c1ccncc1)c1ccc(CN(C(=O)/C=C/c2ccc(C(F)(F)F)cc2)[C@H]2CCN(C3CCCC3)C2)cc1` [Example 114, (E)-N-((S)-1-Cyclopentyl-pyrrolidin-3-yl)-N-[4-(methyl-pyridin-4-yl-amino)-benzyl]-3-(4-trifluoromethyl-phenyl)-acrylamide] gave an IC50 of 0.086 µM.

The IC50 is the concentration that inhibits the measured activity by half.
